What was measured:
[1] = system: rat aortic ring microvessel outgrowth; experiment: Rat aortic ring assay of angiogenesis; assay type: cell-based, Sprague Dawley rats
[2] = system: Human Umbilical Vein Endothelial Cells (HUVECs); experiment: Endothelial cell tube formation assay
[3] = target: TBD (residues 319–425 of human CRBN) (Homo sapiens, UniProt Q96SW2); assay type: binding; conditions: competitive MST
[4] = system: Human Umbilical Vein Endothelial Cells (HUVECs); conditions: 12.5–100 μM; cited from earlier work

Sequence of TBD (residues 319–425 of human CRBN) (Q96SW2 319-425): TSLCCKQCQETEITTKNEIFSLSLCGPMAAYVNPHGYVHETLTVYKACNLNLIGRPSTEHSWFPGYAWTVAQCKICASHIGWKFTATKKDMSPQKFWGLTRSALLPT

NC(=O)c1nnn(Cc2cc(Cl)c(C(=O)c3ccc(Cl)cc3)c(Cl)c2)c1N [CAI, carboxyamidotriazole]
suppression of angiogenesis (positive control) ([1]; 30 μM CAI, 4 days): 95%

O=C1c2c(F)c(F)c(F)c(F)c2C(=O)N1c1ccc(F)cc1F [CPS49]
inhibition of tube formation compared with vehicle control (positive control) ([2]; 30 μM CPS49, HUVECs, 18 hours): 89%

O=C1CCC(N2C(=O)c3c(F)c(F)c(F)c(F)c3C2=O)C(=O)N1 (stereo not shown) [Gu3041, 2-(2,6-Dioxo-3-piperidyl)-4,5,6,7-tetrafluoro-isoindoline-1,3-dione]
tube formation over concentration range (in words) ([2]; 0.1–10 μM, HUVECs): reduced tube formation in a concentration-dependent manner

CC(C)N1C(=O)NC(=O)C(C)(NC(=O)c2ccccc2)C1=O (stereo not shown) [Gu3407, N-(1-Isopropyl-5-methyl-2,4,6-trioxo-hexahydropyrimidin-5-yl)benzamide]
inhibition of tube formation at initial screening dose (in words) ([2]; 10 μM, HUVECs, 18 hours): no inhibition
inhibition of tube formation over concentration range (in words) ([2]; 10–100 μM, HUVECs): no significant inhibition
binding to TBD of human CRBN (in words) [3]: did not show any binding

CO[C@@H]1[C@H](OC(=O)NC(=O)CCl)CC[C@]2(CO2)[C@H]1[C@@]1(C)O[C@@H]1CC=C(C)C [TNP-470]
suppression of angiogenesis (positive control) ([1]; 50 μM TNP-470, 4 days): 92%

O=C1CCC(N2C(=O)c3ccccc3C2=O)C(=O)N1 (stereo not shown) [Thalidomide, 2-phthalimidinoglutarimide]
antiangiogenic activity in tube formation (in words) ([2]; 100 μM, HUVECs): did not demonstrate potent antiangiogenic activity
microvessel outgrowth (in words) ([1]; 100 μM, 4 days): not significantly blocked
tube formation, previous results (in words) [4]: failed to significantly block tube formation

Reference: article PMC7815984 (Biochemical and biophysical research communications, 2020)
